Measurements published in patent US20080171710A1, “The Redox/Fyn/c-Cbl Pathway” (priority 2007, published 2008).

B1: scrambled (Scr) RNAi: scrambled negative control for c-Cbl RNAi, SEQ ID NO: 7 and 8 (nucleic acid)
chain 1: TTTAAACCCGGCCCTTTGGTTCAAGAGACCAAAGGGCCGGGTTTAAATTTTTT
chain 2: AATTAAAAAATTTAAACCCGGCCCTTTGGTCTCTTGAACCAAAGGGCCGGGTTTAAAGGCC
B2: neurotrophin-3 (protein, UniProt P20783 139-257, looked up)
Neurotrophin-3: YAEHKSHRGEYSVCDSESLWVTDKSSAIDIRGHQVTVLGEIKTGNSPVKQYFYETRCKEARPVKNGCRGIDDKHWNSQCKTSQTYVRALTSENNKLVGWRWIRIDTSCVCALSRKIGRT
notes: signaling molecule that enhances self-renewal

Columns and labels:
Erk1/2 = assay type: cell-based, rat; conditions: for Erk1/2 phosphorylation caused by PDGF: co-exposure 24 hr, TH, BMP4, FGF-2 or NT-3 (10 ng/ml); for NT-3-stimulated Erk1/2 phosphorylation: co-exposure to TH, BMP-4 or FGF-2
Experimental: (§1) Cells were deprived of PDGF-AA for 5 h before re-exposure to PDGF-AA (10 ng/ml) for 1 h for Western blot or 6 h for luciferase assays of pathway activation. Transient transfection was performed using Fugene6 (Roche, Basel, Switzerland ) transfection solution according to the manufacturer's protocol. For the luciferase assay, cells seeded in 12-well plates were transfected with a reporter plasmid SRE-Luc(firefly) or NF-κB-Luc(firefly) (BD-Clontech, Palo Alto, Calif., United States) and an internal control plasmid pRLSV40-LUC. Analyses of luciferase activity were performed according to the protocol of the Dual Luciferase Assay System (Promega, Madison, Wis., United States), which uses an internal control of Renilla luciferase for quantification, and relative light units were measured using a luminometer.
(§2) Anti-phosphorylated Erk monoclonal, anti-Erk monoclonal, anti-TrkC polyclonal anti-Fyn polyclonal, anti-EGFR polyclonal, anti-c-Met polyclonal, anti-phospho-tyrosine monoclonal, and anti-PDGFRα polyclonal antibodies were obtained from Santa Cruz Biotechnology (Santa Cruz, Calif., United States). Anti-c-Cbl monoclonal antibody was obtained from BD PharMingen (San Diego, Calif., United States). Anti-phosphorylated Akt monoclonal and anti-Akt polyclonal antibodies were obtained from Cell Signaling Technology (Beverly, Mass., United States). Anti-phosphorylated PDGPRα polyclonal antibody was obtained from Biosource (Carlsbad, Calif., United States). The cell culture samples were collected and lysed in RAPI buffer, whereas dissected tissue samples were sonicated in RAPI buffer. Samples were resolved on SDS-PAGE gels and transferred to PVDF membranes (PerkinElmer Life Science. Wellesley, Mass., United States), After being blocked in 5% skim milk in PBS containing 0.1% Tween 20, membranes were incubated with a primary antibody, followed by incubation with an HRP-conjugated secondary antibody (Santa Cruz Biotechnology). Membranes were visualized using Western Blotting Luminol Reagent (Santa Cruz Biotechnology). All analyses of signaling pathway components were conducted in the presence of ligand for the receptor pathway under analysis (either PDGF-AA for PDGFRα, NT-3 or TrkC, HGF for c-Met, or EGF for EGFR).

PDGFRα = assay type: cell-based, rat; conditions: for absolute levels of PDGFRα: O-2A/OPCs in PDGF, 24 hr exposure; for effect on MeHg-induced reductions in levels of PDGFRα: together with MeHg; for effect on Pb- and paraquat-induced reductions in levels of PDGFRα: together with Pb (1 μM) or paraquat (5 μM)
TrkC = assay type: cell-based, rat; conditions: O-2A/OPCs in NT-3, 24 hr exposure
From the text: as §2

c-Met = assay type: cell-based, rat; conditions: O-2A/OPCs in HGF, 24 hr exposure
From the text: as §2

c-Cbl = assay type: cell-based, rat; conditions: for c-Cbl phosphorylation: O-2A/OPCs induced to divide by PDGF, 3-4 hr exposure; for effect on MeHg-induced c-Cbl phosphorylation: added 1 h before MeHg
Experimental: For the co-immunoprecipitation assay, anti-c-Cbl monoclonal antibody (BD PharMingen) or anti-PDGFRα polyclonal antibody (Santa Cruz Biotechnology) was added to the pre-cleared cell lysates (250 μg of total protein), and the mixtures were gently rocked for 2 h at 4° C. A total of 30 μl of protein A/G agarose was then added to the mixture followed by rotating at 4° C. overnight. The protein A/G agarose was then spun down and washed thoroughly three times. The precipitates were resolved on an 8% SDS-PAGE gel and then were subjected to Western blot analysis using an anti-p-Tyr (for c-Cbl phosphorylation assay) or ubiquitin (for PDGFR ubiquitylation assay) antibody (Santa Cruz Biotechnology).

SRE-luciferase reporter = SRE-luciferase reporter assay; assay type: cell-based, rat; conditions: PDGF plus TH or BMP-4 (10 ng/ml), 24 hr
Experimental: as §1

O-2A/OPCs = test: In vitro BrdU incorporation assay; assay type: cell-based, rat; conditions: with TMX, 2 days
Experimental: Cell proliferation was assessed by bromodeoxyuridine (BrdU) incorporation and by using the mouse anti-BrdU mAb IgGl (1:100; Sigma) to label dividing cells. Stained cells on cover slips were rinsed two times in 1×PBS, counterstained with 4′6-diamidino-2-phenylindole (DAPI; Molecular Probes, Eugene, Oreg., United States) and mounted on glass slides with Fluoromount (Molecular Probes). Staining against surface proteins was performed on cultures of living cells or on cells fixed with 2% paraformaldehyde. Staining with intracellular antibodies was performed by permeabilizing cells with ice-cold methanol for 4 min or by using 0.5% Triton for 15 mm on 2% parafomaldhyde-fixed cells. Antibody binding was detected with appropriate fluorescent dye-conjugated secondary antibodies at 10 μg/ml (Southern Biotech, Birmingham, Ala., United States) or Alexa Fluor-coupled antibodies at a concentration of 1 μg/ml (Molecular Probes), applied for 20 min. Anti-BrdU monoclonal antibody was obtained from Sigma.

Fyn = molecular target: T1, Fyn (Rattus norvegicus, UniProt Q62844); assay type: cell-based; conditions: for effect on MeHg-induced Fyn activation: added 1 h before MeHg
T1 construct: 250 μg of total cell lysates were immunoprecipitated with anti-Fyn antibody; endogenous in cells; host or cells: primary rat O-2A/OPCs
T1 sequence (Q62844 whole entry): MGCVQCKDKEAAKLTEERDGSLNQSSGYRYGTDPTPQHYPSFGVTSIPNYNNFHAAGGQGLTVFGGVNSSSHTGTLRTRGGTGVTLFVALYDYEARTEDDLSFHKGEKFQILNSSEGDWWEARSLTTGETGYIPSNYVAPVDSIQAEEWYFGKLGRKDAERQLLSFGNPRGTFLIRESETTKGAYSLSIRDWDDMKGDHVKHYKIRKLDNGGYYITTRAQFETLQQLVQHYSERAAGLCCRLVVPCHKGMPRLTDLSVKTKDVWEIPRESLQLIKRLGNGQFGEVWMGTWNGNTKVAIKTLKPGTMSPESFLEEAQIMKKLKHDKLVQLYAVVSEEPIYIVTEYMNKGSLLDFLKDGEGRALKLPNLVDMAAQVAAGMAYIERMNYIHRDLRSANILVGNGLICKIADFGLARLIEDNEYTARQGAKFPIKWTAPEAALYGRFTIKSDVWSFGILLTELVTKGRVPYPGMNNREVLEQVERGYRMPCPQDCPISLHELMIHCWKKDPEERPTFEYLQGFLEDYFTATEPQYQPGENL
Experimental: Fyn kinase activity was quantified using the Universal Tyrosine Kinase Assay Kit (Takara, Madison, Wis., United States). O-2A/OPCs exposed to different treatments were solubilized with an equal volume of the extraction buffer provided with the kit for 15 min, and the resulting lysates were centrifuged at 13,000×g for 15 min at 4° C.; 250 μg of total cell lysates were immunoprecipitated with anti-Fyn antibody (Santa Cruz Biotechnology). Following immunoprecipitation, Fyn immune complexes were washed four times with extraction buffer, and then Fyn kinase activities of each sample were assayed using the kit according to the manufacturer's instructions.

[1] = NAC 1 mM, PP1 100 nM or ICI 182,780 200 nM with TMX
[2] = added 1 h before Pb or paraquat

Row | Molecule | Erk1/2 phosphorylation caused by PDGF (Erk1/2) | NT-3-stimulated Erk1/2 phosphorylation (Erk1/2) | absolute levels of PDGFRα (PDGFRα) | levels of TrkC (TrkC) | c-Met levels (c-Met) | c-Cbl phosphorylation (c-Cbl) | also measured
1 | fibroblast growth factor-2 [FGF-2] | enhances signaling | not affected | increase | unaffected | increased | caused a reduction | levels of PDGFRα in the presence of actinomycin D (PDGFRα; FGF-2 10 ng/ml and PDGF, 24 hr): still show increased levels
2 | N[C@@H](Cc1cc(I)c(Oc2ccc(O)c(I)c2)c(I)c1)C(=O)O [TH, thyroid hormone, reference compound] | reduce | not affected | reductions |  |  |  | SRE-reporter gene expression (SRE-luciferase reporter): greatly reduces
3 | C[C@]12CC[C@@H]3c4ccc(O)cc4C[C@@H](CCCCCCCCC[S+]([O-])CCCC(F)(F)C(F)(F)F)[C@H]3[C@@H]1CC[C@@H]2O (stereo partly drawn) [ICI 182780] |  |  |  |  |  |  | effect on TMX effect on cell proliferation (O-2A/OPCs): blocked; effect on TMX-induced reductions in levels of PDGFRα (PDGFRα; [1]): rescued; effect on TMX-induced activation of Fyn (Fyn; [1]): prevented; effect on TMX-induced activation of c-Cbl (c-Cbl; [1]): prevented
4 | bone morphogenetic protein-4 [BMP-4] | reduce | not affected | reductions | unaffected | decreases | increased phosphorylation | SRE-reporter gene expression (SRE-luciferase reporter): greatly reduces; fyn activation (Fyn; differentiation inducers TH and BMP): activated
5 | CN(C)CCCn1cc(C2=C(c3c[nH]c4ccccc34)C(=O)NC2=O)c2ccccc21 [BIM-1, bisindoleylmaleimide I] |  |  |  |  |  |  | effect on MeHg-induced reductions in levels of PDGFRα (PDGFRα): did not protect; effect on Pb- and paraquat-induced reductions in levels of PDGFRα (PDGFRα): did not protect; effect on MeHg-induced Fyn activation (Fyn): did not prevent; effect on Pb- and paraquat-induced Fyn activation (Fyn; [2]): did not prevent; effect on MeHg-induced c-Cbl phosphorylation (c-Cbl): did not prevent; effect on Pb- and paraquat-induced c-Cbl phosphorylation (c-Cbl; [2]): did not prevent
6 | CC(C)(C)n1nc(-c2ccc(Cl)cc2)c2c(N)ncnc21 [PP2] |  |  |  |  |  |  | effect on MeHg-induced Fyn activation (Fyn): blocked; effect on MeHg-induced c-Cbl phosphorylation (c-Cbl): blocked
7 | O=C1N[C@H](C(=O)O)CS1 [proeysteinc, procysteine] |  |  |  |  |  |  | effect on Pb- and paraquat-induced reductions in levels of PDGFRα (PDGFRα): protected
8 | C[C@@H]1C[C@@H]([C@H](O)CC2CC(=O)NC(=O)C2)C(=O)[C@@H](C)C1 [cycloheximide] |  |  |  |  |  |  | levels of PDGFRα on inhibition of protein synthesis (PDGFRα; cycloheximide 1 μg/ml): reductions
9 | B1 |  |  |  |  |  |  | effect on MeHg-induced reductions in levels of PDGFRα (PDGFRα): had no effect
10 | B2 | enhances signaling |  | increase | unaffected | increased | caused a reduction | 
